US10493077B2, “Fused imidazo-piperidine JAK inhibitor compound” (THERAVANCE BIOPHARMA R&D IP, LLC, priority 2017, dated 2019)

What was measured:
[1] = biological target: T1, GSK3B (Homo sapiens, UniProt P49841); assay: Kinome screen, GSK3B; format: binding; conditions: screened at 1 μM
T1 construct: made in house; host or cells: T7 phage in E. coli (BL21-derived) or HEK-293
Protocol: (§1) Kinase-tagged T7 phage strains were grown in parallel in 24-well blocks in an E. coli host derived from the BL21 strain. E. coli were grown to log-phase and infected with T7 phage from a frozen stock (multiplicity of infection=0.4) and incubated with shaking at 32° C. until lysis (90-150 minutes). The lysates were centrifuged (6,000×g) and filtered (0.2 μm) to remove cell debris. The remaining kinases were produced in HEK-293 cells and subsequently tagged with DNA for qPCR detection.
(§2) Streptavidin-coated magnetic beads were treated with biotinylated small molecule ligands for 30 minutes at room temperature to generate affinity resins for kinase assays. The liganded beads were blocked with excess biotin and washed with blocking buffer (SeaBlock (Pierce), 1% BSA, 0.05% Tween 20, 1 mM DTT) to remove unbound ligand and to reduce non-specific phage binding. […] Test compounds were prepared as 40× stocks in 100% DMSO and directly diluted into the assay. All reactions were performed in polypropylene 384-well plates in a final volume of 0.04 ml. […] The beads were then re-suspended in elution buffer (1×PBS, 0.05% Tween 20, 0.5 μM non-biotinylated affinity ligand) and incubated at room temperature with shaking for 30 minutes. The kinase concentration in the eluates was measured by qPCR.

[2] = biological target: T2, PLK4 (Homo sapiens, UniProt O00444); assay: Kinome screen, PLK4; format: binding; conditions: screened at 1 μM
T2 construct: made in house; host or cells: T7 phage in E. coli (BL21-derived) or HEK-293
T2 sequence (O00444 whole entry): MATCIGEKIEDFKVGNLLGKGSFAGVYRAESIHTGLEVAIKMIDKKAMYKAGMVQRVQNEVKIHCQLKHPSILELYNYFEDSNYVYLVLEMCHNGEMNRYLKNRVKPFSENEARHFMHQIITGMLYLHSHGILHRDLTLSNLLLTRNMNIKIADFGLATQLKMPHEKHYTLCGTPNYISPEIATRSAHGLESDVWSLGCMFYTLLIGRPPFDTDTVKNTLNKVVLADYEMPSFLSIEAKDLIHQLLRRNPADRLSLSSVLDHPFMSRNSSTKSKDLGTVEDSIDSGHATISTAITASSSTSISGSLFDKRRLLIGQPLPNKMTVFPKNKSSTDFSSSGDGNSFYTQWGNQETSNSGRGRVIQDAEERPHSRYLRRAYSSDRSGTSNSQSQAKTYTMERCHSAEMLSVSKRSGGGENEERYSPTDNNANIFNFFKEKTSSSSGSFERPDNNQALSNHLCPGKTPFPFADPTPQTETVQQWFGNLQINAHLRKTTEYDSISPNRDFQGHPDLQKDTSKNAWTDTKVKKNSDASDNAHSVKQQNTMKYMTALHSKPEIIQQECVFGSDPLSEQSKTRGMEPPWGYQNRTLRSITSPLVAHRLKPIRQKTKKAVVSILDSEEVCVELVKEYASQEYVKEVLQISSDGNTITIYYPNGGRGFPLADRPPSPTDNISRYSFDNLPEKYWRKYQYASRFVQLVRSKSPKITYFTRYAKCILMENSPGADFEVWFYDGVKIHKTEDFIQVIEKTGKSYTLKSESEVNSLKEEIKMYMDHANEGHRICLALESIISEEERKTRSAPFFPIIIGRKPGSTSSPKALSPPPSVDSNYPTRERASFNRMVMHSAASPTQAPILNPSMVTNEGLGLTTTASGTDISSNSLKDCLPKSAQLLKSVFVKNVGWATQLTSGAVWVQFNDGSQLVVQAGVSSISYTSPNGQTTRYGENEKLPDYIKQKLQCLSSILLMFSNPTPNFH
Protocol: as §1, §2

[3] = system: IL-2 stimulated pSTAT5 in CD4+ T cells; assay: Cellular JAK potency assay: inhibition of IL-2 stimulated pSTAT5 in CD4+ T cells; format: cell-based; conditions: 0.5 h; CD4+ T cells in human PBMCs, 30 min stimulation; read-out: pIC50, inhibition of IL-2 stimulated pSTAT5 (converted)
Protocol: The potency of the test compound for inhibition of interleukin-2 (IL-2)/anti-CD3 stimulated STAT5 phosphorylation was measured in CD4-positive (CD4+) T cells in human peripheral blood mononuclear cells (PBMCs) isolated from human whole blood (Stanford Blood Center) using flow cytometry. Because IL-2 signals through JAK, this assay provides a measure of JAK cellular potency.
CD4+ T cells were identified using a […] (PE) conjugated anti-CD4 antibody (Clone RPA-T4, BD Biosciences), while an Alexa Fluor 647 conjugated anti-pSTAT5 antibody (pY694, Clone 47, BD Biosciences) was used to detect STAT5 phosphorylation. […]
(2) After cytokine stimulation, cells were fixed with pre warmed fix solution (200 μL; BD Biosciences) for 10 min at 37° C., 5% CO2, washed twice with DPBS buffer (1 mL, Life Technologies), and resuspended in ice cold Perm Buffer III (1000 μL, BD Biosciences) for 30 min at 4° C. […] After incubation, cells were washed twice in FACS buffer before being analyzed using a LSRII flow cytometer (BD Biosciences). To determine the inhibitory potency of the test compound in response to IL-2/anti-CD3, the median fluorescent intensity (MFI) of pSTAT5 was measured in CD4+ T cells. IC50 values were determined from analysis of the inhibition curves of MFI vs compound concentration. Data are expressed as pIC50 (negative decadic logarithm IC50) values.

[4] = biological target: T3, CDK9 (Homo sapiens, UniProt P50750); assay: Kinome screen, CDK9; format: binding; conditions: screened at 1 μM
T3 construct: made in house; host or cells: T7 phage in E. coli (BL21-derived) or HEK-293
T3 sequence (P50750 whole entry): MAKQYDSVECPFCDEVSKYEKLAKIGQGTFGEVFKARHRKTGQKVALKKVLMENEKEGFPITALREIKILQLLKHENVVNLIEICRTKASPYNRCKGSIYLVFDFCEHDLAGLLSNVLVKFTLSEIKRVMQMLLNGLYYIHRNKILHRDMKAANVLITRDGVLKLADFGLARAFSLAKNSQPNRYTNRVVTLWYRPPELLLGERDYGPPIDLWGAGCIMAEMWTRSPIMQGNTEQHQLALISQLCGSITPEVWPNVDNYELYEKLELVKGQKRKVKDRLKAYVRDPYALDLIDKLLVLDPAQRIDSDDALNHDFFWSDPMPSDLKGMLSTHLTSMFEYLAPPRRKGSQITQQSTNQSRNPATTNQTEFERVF
Protocol: as §1, §2

[5] = system: IFNγ stimulated STAT1 phosphorylation in CD14+ monocytes; assay: Cellular JAK potency assay: inhibition of IFNγ-induced pSTAT1 in CD14+ monocytes; format: cell-based; conditions: Homo sapiens, Monocyte, read-out: pIC50, inhibition of IFNγ-induced pSTAT1 (converted)
Protocol: The potency of the test compound for inhibition of interferon gamma (IFNγ) stimulated STAT1 phosphorylation was measured in CD14-positive (CD14+) monocytes derived from human whole blood (Stanford Blood Center) using flow cytometry. Because IFNγ signals through JAK, this assay provides a measure of JAK cellular potency.
Monocytes were identified using a fluorescein isothiocyanate (FITC) conjugated anti-CD14 antibody (Clone RM052, Beckman Coulter), and an Alexa Fluor 647 conjugated anti-pSTAT1 antibody (pY701, Clone 4a, BD Biosciences) was used to detect STAT1 phosphorylation.
Human peripheral blood mononuclear cells (PBMC) were isolated from human whole blood of healthy donors using a ficoll gradient. […] Cells were washed twice with FACS buffer, and then resuspended in 1:10 anti-pSTAT1 Alexa Fluor 647:FACS buffer (100 μL) for 30 min at RT in the dark, washed twice in FACS buffer, and analyzed using a LSRII flow cytometer (BD Biosciences).
To determine the inhibitory potency of the test compound, the median fluorescent intensity (MFI) of pSTAT1 was measured in CD14+ monocytes. IC50 values were determined from analysis of the inhibition curves of MFI vs compound concentration. Data are expressed as pIC50 (negative decadic logarithm IC50) values.

[6] = biological target: T4, EPHB6 (Homo sapiens, UniProt O15197); assay: Kinome screen, EPHB6; format: binding; conditions: screened at 1 μM
T4 construct: made in house; host or cells: T7 phage in E. coli (BL21-derived) or HEK-293
T4 sequence (O15197 32-1021): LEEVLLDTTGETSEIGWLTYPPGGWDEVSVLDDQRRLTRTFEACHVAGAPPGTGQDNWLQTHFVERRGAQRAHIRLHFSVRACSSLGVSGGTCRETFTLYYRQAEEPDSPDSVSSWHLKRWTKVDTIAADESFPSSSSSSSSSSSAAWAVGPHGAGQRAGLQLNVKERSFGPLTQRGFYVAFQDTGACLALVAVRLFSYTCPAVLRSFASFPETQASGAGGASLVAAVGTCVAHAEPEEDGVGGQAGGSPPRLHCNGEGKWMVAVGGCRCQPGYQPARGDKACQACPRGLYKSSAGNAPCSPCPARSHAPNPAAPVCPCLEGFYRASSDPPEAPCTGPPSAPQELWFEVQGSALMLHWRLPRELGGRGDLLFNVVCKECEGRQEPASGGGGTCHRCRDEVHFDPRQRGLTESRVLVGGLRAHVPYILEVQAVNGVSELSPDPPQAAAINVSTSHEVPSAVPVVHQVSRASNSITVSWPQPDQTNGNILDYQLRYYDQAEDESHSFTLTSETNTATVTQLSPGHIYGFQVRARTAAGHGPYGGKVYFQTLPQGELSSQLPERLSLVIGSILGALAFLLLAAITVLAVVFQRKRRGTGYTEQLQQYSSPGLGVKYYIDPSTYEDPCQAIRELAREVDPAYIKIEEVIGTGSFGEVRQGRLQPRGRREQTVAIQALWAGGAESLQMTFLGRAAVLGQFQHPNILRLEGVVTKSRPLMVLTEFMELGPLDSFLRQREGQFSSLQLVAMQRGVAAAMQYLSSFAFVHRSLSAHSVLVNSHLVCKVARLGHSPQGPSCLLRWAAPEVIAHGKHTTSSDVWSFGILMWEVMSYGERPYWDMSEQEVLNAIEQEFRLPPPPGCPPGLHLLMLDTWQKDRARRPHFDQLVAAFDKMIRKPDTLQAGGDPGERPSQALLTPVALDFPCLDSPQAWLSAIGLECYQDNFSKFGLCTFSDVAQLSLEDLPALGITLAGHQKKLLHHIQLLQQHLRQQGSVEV
Protocol: as §1, §2

T1 sequence (P49841 whole entry): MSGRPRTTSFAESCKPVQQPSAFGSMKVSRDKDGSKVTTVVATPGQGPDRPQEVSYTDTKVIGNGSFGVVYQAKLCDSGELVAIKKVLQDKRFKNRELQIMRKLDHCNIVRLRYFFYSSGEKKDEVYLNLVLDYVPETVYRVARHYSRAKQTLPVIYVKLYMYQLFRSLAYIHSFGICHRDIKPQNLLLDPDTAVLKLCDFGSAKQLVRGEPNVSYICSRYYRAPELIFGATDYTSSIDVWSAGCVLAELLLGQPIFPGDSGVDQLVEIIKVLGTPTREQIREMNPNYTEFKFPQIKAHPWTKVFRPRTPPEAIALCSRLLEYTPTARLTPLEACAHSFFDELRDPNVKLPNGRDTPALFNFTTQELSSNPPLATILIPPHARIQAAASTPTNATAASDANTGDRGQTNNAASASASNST

## CCc1cc(O)c(F)cc1-c1cc(F)c2c(-c3nc4c([nH]3)CCN(C(=O)CN3CCOCC3)C4)n[nH]c2c1 [Compound 1, 1-(2-(6-(2-ethyl-5-fluoro-4-hydroxyphenyl)-4-fluoro-1H-indazol-3-yl)-1,4,6,7-tetrahydro-5H-imidazo[4,5-c]pyridin-5-yl)-2-morpholinoethan-1-one]
[1]
  inhibition at 1 µM: 31%
[2]
  inhibition at 1 µM: 58%
[3]
  IC50: ~20 nM
[4]
  inhibition at 1 µM: 9%
[5]
  IC50: ~79.4 nM
[6]
  inhibition at 1 µM: 88%
